Test results: US8771741B2, “In vivo photodynamic therapy of cancer via a near infrared agent encapsulated in calcium phosphate nanoparticles” (The Penn State Research Foundation, priority 2009, dated 2014)
“Also recorded” adds a separate entry of the source. Where a name gives a salt, the structure may show the parent alone.

Legend:
[1] = in methanol; cited from earlier work
Solubility in water = assay type: physicochemical
[2] = Fluorescence correlation spectroscopy in DPBS (pH dependent dissolution); assay type: physicochemical; conditions: for Diffusion coefficient, average / RH (hydrodynamic radius), average: DPBS pH 4, free dye, average of ten measurements
From the text: Fluorescence correlation spectroscopy was used to determine the solution phase behavior of the particles in order to better understand the particulate behavior in biologically-relevant solutions and to monitor only the fluorescing species. To this end we examined the free dye and the particles in DPBS (Dulbecco's phosphate buffered saline), at pH 7 and at pH 4. Low pH conditions mimicked the acidic environment of an endo-lysosome in which a particle would be enveloped during endocytosis.
FCS measurements were collected for free Cy3 dye at pH 4, Cy3-doped nanoparticles at pH 4 and pH 7 in DPBS. Sample autocorrelation curves are shown in FIG. 9, where a shift of the curve to the right (greater characteristic diffusion time) signifies a lower diffusion coefficient and a larger hydrodynamic radius. In this case, the diffusion time of free Cy3 dye molecules is 127 μs and that of the nanoparticles at pH 7 is 1311 μs. […] The corresponding hydrodynamic radii are RH=9.40±3.83 nm for the nanoparticles at pH 7, RH=0.76±0.09 nm for the nanoparticles at pH 4 and RH=0.75±0.06 nm for the free dye at pH 4. Similar results were obtained for the nanoparticles in DI water at pH 7 and pH 4 (data not shown). In addition to the diffusion data, the particle number concentration can be determined based on the number of particles that diffuse through the observation volume. The CPNP suspension has a particle number concentration of ˜6×10^14 particles/mL, based on these determinations.
The diffusion coefficients and their associated hydrodynamic radii for the ten measurements collected for each sample type (the nanoparticle samples at pH 7 and pH 4, and the Cy3 free dye at pH 4) are listed in Table S1.

[3] = Relative fluorescence quantum efficiency of Cy3; assay type: physicochemical; conditions: PBS, excitation 532 nm, reference Rhodamine 6G
Procedure: As a comparison of the free dye to the encapsulated dye, the relative fluorescence quantum efficiency (QE) was determined according to techniques in the literature. (Williams, A. T. R.; Winfield, S. A.; Miller, J. N. The Analyst 1983, 108, 1067-1071; Kubin, R. F.; Fletcher, A. N. Journal of Luminescence 1982, 27, 455-462). In brief, the integrated fluorescence signals of the free Cy3 and the Cy3-doped CPNPs in PBS were compared to a known reference standard with an excitation wavelength of 532 nm and the QE was calculated using a modified relationship from Lakowicz (Lakowicz, J. R., Principles of Fluorescence Spectroscopy. Third ed.; Springer Science and Business Media: New York, 2006; p 54),
[formula] where Φ, and ΦR are the QE for the sample and the reference respectively, M and Mr are the slopes of the integrated intensity versus absorption plots (FIG. 12A) and n is the refractive index of each solvent. Rhodamine 6G in ethanol was used as a reference with a quantum efficiency of 0.95. (Kubin, R. F.; Fletcher, A. N. Journal of Luminescence 1982, 27, 455-462). […] FIG. 12B exemplifies this enhancement in QE by comparing the fluorescence signal of the Cy3-doped CPNPs to a solution of Cy3 free dye with the same absorption at 532 nm. […]

[4] = Fluorescence emission of ICG-CPNPs versus free ICG; assay type: physicochemical; conditions: aqueous solution, pH 7; data not shown
From the text: The fluorescence spectrum of the dye-doped CPNPs was compared to that of the corresponding free ICG dye under identical optical conditions (785 nm excitation). […] These undesirable phenomena result in peak transformations or spectral shifts, respectively, which are not observed for the embedded ICG emission.
For all optical measurements, samples were placed in a low-volume fluorescence cuvette (9F-SOG-10-GL14-S; Starna Cells, Inc., Atascadero, Calif.), and held by a modified cuvette holder. Absorption spectra were recorded on a PerkinElmer Lambda 950 UV-Vis-NIR spectrophotometer (Perkin Elmer, Waltham, Mass.). The dye-doped particle absorption at 785 nm was compared to a standard curve of absorption vs. ICG concentration to identify the apparent encapsulate content, not accounting for any matrix effects. Next, the release of the encapsulated fluorophore was induced with the addition of a 10:1 volume ratio of a 10^−3 M solution of ethylenediaminetetraacetic acid (EDTA) to the particle suspension. EDTA is a chelating agent that sequesters the divalent Ca^2+ ion from the nanostructure, dissolving the calcium phosphate particles. […]
Fluorescence spectra were recorded using an in-house spectroscopy system in which emitted radiation was collected at 90 degrees with a 10× microscope objective (N.A. 0.3) coupled into a fiber optic cable leading to the spectrometer (Ocean Optics HR-2000-USB). […]

[5] = Quantum efficiency of ICG; assay type: physicochemical; conditions: PBS pH 7.4, reference HITC
Procedure: Each measurement was conducted in duplicate on two separate occasions using freshly prepared stock solutions and a new set of standard data.

[6] = Solvent protection (emission spectra in four bio-relevant solvents); assay type: physicochemical; conditions: water, DMEM, ethylene glycol, DMSO
From the text: The chemical stability of the encapsulated fluorophore was experimentally verified by analyzing fluorescence spectra as a function of solvent environment. The effect of four bio-relevant solvents (water, Dulbecco's modified Eagle's medium (DMEM), ethylene glycol, and dimethylsulfoxide (DMSO)) on the free ICG dye is shown in FIG. 17A, with shifts in the normalized emission spectra dependent on the solvent environment. The maximum emission wavelengths have a standard deviation of 7.8 nm over an 18 nm spread. These peak values shift toward longer wavelengths due to a combination of general solvent influences and specific solvent effects, such as molecule-molecule interactions and hydrogen bonding. (Lakowicz, J. R., Principles of Fluorescence Spectroscopy. 3rd ed.; Springer: Baltimore, Md., 2006).
Fluorescence spectra were recorded using an in-house spectroscopy system in which emitted radiation was collected at 90 degrees with a 10× microscope objective (N.A. 0.3) coupled into a fiber optic cable leading to the spectrometer (Ocean Optics HR-2000-USB). A high power 785 nm diode laser (450 mW/cm^2) was used as the excitation source (RL785; Renishaw plc, Gloucestershire, UK). […] Aliquots of each were diluted 1:10 into the test solvent and kept in the dark. Measurements were conducted precisely 10 minutes after the sample introduction.

[7] = tested on: nude mice implanted with subcutaneous human breast adenocarcinoma tumors; assay: In vivo NIR imaging: pharmacokinetic distribution and tumor localization; conditions: 24 hours post tail vein injection
Procedure: A NIR whole animal imaging approach was used to investigate the in vivo pharmacokinetic distribution of ICG-CPNPs in nude mice. […] Two different surface functionalities of CPNPs were evaluated, as-synthesized carboxylate surface termination (not shown) and particles surface functionalized with polyethylene glycol (PEG) (series iii). The in vivo behavior of the ICG-CPNP samples were compared to two controls: a sample of carboxylated ghost CPNPs without a fluorescent encapsulate (series i) and free ICG of equivalent absorption (series ii). […] The relatively short in vivo fluorescence of the free dye is attributed to fluorescence quenching of free ICG in physiological environments (Landsman, M. L. J.; Kwant, G.; Mook, G. A.; Zijlstra, W. G. Journal of Applied Physiology 1976, 40, (4), 575-583; Desmettre, T.; Devoisselle, J. M.; Mordon, S. Survey of Opthalmology 2000, 45, (1), 15-27; Simmons, R.; Shephard, R. J. Journal of Applied Physiology 1971, 30, (4), 502-507; Gathje, J.; Steuer, R. R.; Nicholes, K. R. K. Journal of Applied Physiology 1970, 29, (2), 181-185; Mordon, S.; Devoisselle, J. M.; Soulie-Begu, S.; Desmettre, T. Microvascular Research 1998, 55, (2), 146-152; Maarek, J. M. I.; Holschneider, D. P.; Harimoto, J. Journal of Photochemistry and Photobiology B-Biology 2001, 65, (2-3), 157-164) with rapid aggregation and clearance from the body. […]

animal subjects = conditions: cited from earlier work
[8] = tested on: MCF-7 breast adenocarcinoma cells; assay: Caspase-3/7 apoptosis assay, drug sensitive cells; assay type: cell-based, human; conditions: MCF-7, 24 hrs
Procedure: (§1) Human MCF-7 breast adenocarcinoma cells and the adriamycin resistant MCF-7-ADR(NCl-AdrR) were grown at 37° C. in RPMI 1640 medium supplemented with 10% fetal bovine serum (FBS). MCF-7 and MCF-7-ADR cells were seeded to a density of 6×10^3 cells/well and grown for 48 hrs in culture medium containing 10% FBS. Cells were then treated with Cer10-CPNP or control CPNP for 24 hrs in media containing 1% fetal bovine serum. Caspase-3/7 enzymatic activity levels were then measured using the Apo-ONE Homogenous Caspase-3/7 Assay (Promega) and performed following the instructions of the manufacturer. The kit provides a caspase-3/7 substrate and Rhodamine 110, which is cleaved by enzymatically active caspase-3/7 resulting in a fluorogenic cleavage product.

[9] = tested on: MCF-7/ADR (adriamycin resistant) breast adenocarcinoma cells; assay: Caspase-3/7 apoptosis assay, drug resistant cells; assay type: cell-based, human; conditions: 24 hrs
Procedure: as §1

For CN1C(=CC=CC=CC=CC2=[N+](C)c3ccccc3C2(C)C)C(C)(C)c2ccccc21.[I-] [hexamethylindotricarbocyanine (HITC), 1,1′,3,3,3′,3′-hexamethylindotricarbocyanine iodide], the “quantum yield of reference dye” value [1] is listed as 0.28.

Compound O=C1OC2(c3ccc(O)cc3Oc3cc(O)ccc32)c2ccccc21 [fluorescein sodium salt] has a solubility (Solubility in water; water) of over 40 mg/mL.

With Cy3 amidite [Cy3 Dye] the “Diffusion coefficient, average” value [2] was 2.90 × 10^−6 cm^2/s, the “RH (hydrodynamic radius), average” value [2] was 0.751 nm and the “Diffusion coefficient, average” value ([2]; listed as free Cy3 dye) was 29.0±0.18×10^−7 cm^2/s. For the same compound, the “RH (hydrodynamic radius), average” value ([2]; listed as free Cy3 dye) was 0.75±0.06 nm, the diffusion time ([2]; sample autocorrelation curve, free dye pH 4) was 127 μs and the quantum efficiency ([3]; listed as Cy3 in free solution) was 0.045. It also gave a quantum efficiency ([3]; listed as free Cy3 dye) of 0.045±0.002 and a solubility in water (Solubility in water) of under 0.05 mg/mL.

With CC1(C)C(/C=C/C=C/C=C/C=C2\N(CCCCS(=O)(=O)O)c3ccc4ccccc4c3C2(C)C)=[N+](CCCCS(=O)(=O)[O-])c2ccc3ccccc3c21 [free ICG, indocyanine green] the “concentration at which self-aggregation and loss of emission intensity occur” value [4] was 7 µM, the “quantum efficiency (per molecule)” value [5] was 0.028±0.001 and the “spread of maximum emission wavelengths over four solvents” value [6] was 18 nm. For the same compound, the “in vivo fluorescence signal” value [7] was “no detectable signal; also recorded: No fluorescence signal is detected” and the LD50 (animal subjects) was 50 to 80 mg/kg.

With CCCCCCCCCCCCC/C=C/[C@@H](O)[C@H](CO)NC(=O)CCCCCCCCC [Cer10 in DMSO, Decanoyl-ceramide] the “caspase 3/7 activity (apoptosis)” value [8] was “not” and the “caspase 3/7 activity (apoptosis)” value [9] was “not”.
